Peptide text beside a SMILES is read from it.
Legend:
red blood cells = assay: Hemolysis test; assay type: cell-based, rat; conditions: 1 hour 37° C.
Description: Furthermore, it was confirmed whether hemolysis, in which blood cells are destroyed, occurs by treatment with the peptide of the present invention. In a state where the coagulation reaction of the collected rat blood was suppressed in a heparinized vacuum collection tube, it was transferred to an EP tube and centrifuged at 1,500 g for 10 minutes. After removing the supernatant plasma, the precipitated red blood cells were treated with 200 μl of 2.5% and 5% of the peptide of the present invention, respectively. A sample treated with 1% SDS was used as a positive control for hemolysis. Each sample was stored for 1 hour in a 37° C. incubator, and then centrifuged again at 1,500 g for 10 minutes. 200 μl of the supernatant was transferred to a 96-well plate, and the optical density was measured at a wavelength of 540 nm.

rat blood [1] = assay: Blood coagulation test: optical density of supernatant; assay type: cell-based; conditions: heparinized rat blood, CaCl2 added, 37° C. 10 minutes
Description: In addition, in order to evaluate the coagulation efficacy of the peptide of the present invention, the peptide of the Preparation Example was treated with rat blood, and its optical density was measured. Specifically, in a state where the coagulation reaction of the collected rat blood was suppressed in a heparinized vacuum collection tube, 300 μl of blood was transferred to a 15 ml conical tube, and 300 μl of the peptide of the present invention solution was added thereto and mixed gently. Then, 30 μl of 0.2 M CaCl2 solution was added thereto and incubated at 37° C. for 10 minutes to accelerate the coagulation reaction. Then, 10 ml of distilled water was carefully added thereto, and 200 μl of the uniformly dispersed supernatant was added to a 96-well plate, and the optical density was measured at a wavelength of 540 nm using a spectrophotometer. Likewise, Greenplast and RADA16 peptide preparations were used as controls.

rat blood [2] = assay: Blood coagulation test: clotting time by tube inversion; assay type: cell-based; conditions: 300 μl heparinized rat blood + 150 μl sample, peptides at 2.5%
Description: First, the clotting time of blood according to the treatment of the peptide of the present invention was evaluated. In a state where the coagulation reaction of the collected rat blood was suppressed in a heparinized vacuum collection tube, 300 μl of blood was transferred to an EP tube, and 150 μl of a solution in which the peptide of the present invention was dissolved in purified water was treated thereto. The clotting time was measured by inverting the tube at 10-second intervals and visually evaluating the flowability of the blood. As a control group, the RADA16 peptide sample and Greenplast (Greenplast Q, GC Green Cross) were used to conduct the experiment in the same manner as the peptide of the present invention.

CC[C@H](C)[C@H](NC(=O)[C@H](CC(N)=O)NC(=O)CNC(=O)[C@H](C)NC(=O)[C@H](CC(C)C)NC(=O)[C@H](Cc1ccc(O)cc1)NC(=O)[C@H](C)NC(=O)[C@H](CCC(N)=O)NC(=O)[C@H](CO)NC(=O)[C@H](C)NC(=O)[C@@H](N)CO)C(=O)N[C@H](C(=O)O)[C@@H](C)O [Peptide of the present invention, SASQAYLAGNIT] (H-SASQAYLAGNIT-OH)
hemolysis (optical density of supernatant at 540 nm) (red blood cells; 2.5% peptide, 200 μl): did not induce hemolysis
hemolysis (optical density of supernatant at 540 nm) (red blood cells; 5% peptide, 200 μl): did not induce hemolysis

CCCCCCCCCCCCOS(=O)(=O)[O-].[Na+] [SDS]
hemolysis (optical density of supernatant at 540 nm) (red blood cells; 1% SDS positive control): hemolysis occurred

RADA16
optical density (540 nm) of supernatant relative to negative control treated with distilled water (rat blood [1]): 0.7
Blood Clotting time (rat blood [2]): <30 s
Blood Clotting time (rat blood [2]; listed as RADA16 peptide): less than 30 sec
